Test results from US10426162B2, “Interaction between antimicrobial quaternary compounds and anionic surfactants” (Ecolab USA Inc., priority 2016, dated 2019).

Tests used:
[1] = Dynamic surface tension (SITA science line t60 bubble pressure); conditions: for dynamic surface tension: 100 ppm Bardac […] + sulfate based anionic surfactant at mole:mole ratio, FIGS. 4A-4C
Description: The SITA science line t60 measures the dynamic surface tension of liquids up to the semi-static range. Air bubbles are generated from a capillary with known radius. The bubble pressure is measured as a function of bubble life time, which can be correlated to the surface tension according to the Young-Laplace equation.
The SITA science line t60 was calibrated with DI water. Clean water samples after calibration should have a surface tension of 72.0 ±1.0 mN/m (depending on the quality and temperature). Following calibration, the SITA was programmed to take readings at the desired time intervals (i.e., 0.3, 1.6, 3.0, 9.1 seconds). In order to determine the effects on the surface activity of a 9:1 mass ratio of quaternary ammonium compound with an anionic surfactant the following compositions were prepared.
10-15 mL were transferred into 20 mL vials and immersed in a heated oil bath to 72° C. (160° F.)±2° C. The samples were equilibrated for 10-15 minutes. The samples were individually removed from the oil bath and tested in the SITA. After each sample was tested the SITA's cleaning procedure was run, then the surface tension of DI water was checked to ensure the SITA was adequately clean. If the DI water measurements were not within 72.0±1.0 mN/m, then the cleaning procedure was run again.
The SITA science line t60 was calibrated with DI water. Clean water samples after calibration should have a surface tension of 72.0±1.0 mN/m (depending on the quality and temperature). Following calibration, the SITA was programmed to take readings at the desired time intervals (i.e., 0.3, 1.6, 3.0, 9.1 seconds). In order to determine the effects on the dynamic surface tension of Bardac LF80 and varying concentrations of Acusol 445 the following five solutions were analyzed at pH 7.0; 100 ppm Bardac LF80; 10 ppm Acusol 445; 100 ppm Bardac LF80+10 ppm Acusol 445; 100 ppm Bardac LF80+30 ppm Acusol 445; and 100 ppm Bardac LF80+75 ppm Acusol 445.

bacteria = assay: Antimicrobial efficacy at pH 8.0, 7.5 to 1 mass ratio (FIG. 6B); format: cell-based; conditions: 7.5/1 mass ratio; for antimicrobial efficacy: 150 ppm Bardac […] + anionic surfactant; for log reduction of bacteria: 300 ppm Bardac […] + anionic surfactant
Description: Further examination of the antimicrobial efficacy of a quaternary ammonium compound in association with an anionic surfactant at pH 8.0 was performed as described above.

Escherichia coli = assay: Antimicrobial suspension test of quat-anionic surfactant compositions (Examples 6-7); format: cell-based; conditions: for antimicrobial efficacy against E. coli (log reduction of bacteria): 300 ppm Bardac […] + anionic surfactant, mole:mole ratio, pH 8, FIG. 7; for log reduction of bacteria for E. coli: 300 ppm active Bardac […] + anionic surfactant, 7.5/1 mass ratio, FIG. 6A
Staphylococcus = assay: Antimicrobial suspension test of quat-anionic surfactant compositions (Examples 6, 8); format: cell-based, Staphylococcus aureus; conditions: for kill properties on Staphylococcus: 300, 150 and 75 ppm active Bardac […] + anionic surfactant, 7.5:1 mass ratio, pH 8, FIG. 8; for antimicrobial efficacy against Staphylococcus: FIG. 6A
E. coli = assay: Third sink sanitizer (Example 12); format: cell-based, Escherichia coli; conditions: 500 ppm water hardness, neutral pH versus pH 4.5
Description: The antimicrobial efficacy of quaternary ammonium compounds and anionic surfactants for use as a third sink sanitizer were evaluated as shown in Table 10.

[2] = 100 ppm Bardac […] + anionic carboxylate surfactant at mole:mole ratio, FIG. 3A
[3] = Bardac […] + anionic sulfate surfactant at mole:mole ratio, FIG. 2
[4] = 300 ppm active Bardac […] + anionic surfactant, 7.5/1 mass ratio
[5] = 300 ppm Bardac […] + anionic surfactant, mole:mole ratio

Compound	dynamic surface activity (surface tension versus bubble life time) [1, 2]	antimicrobial efficacy (bacteria)	log reduction of bacteria (bacteria)	antimicrobial efficacy against E. coli (log reduction of bacteria) (Escherichia coli)	kill properties on Staphylococcus (Staphylococcus)	dynamic surface activity (surface tension versus bubble life time) [1, 3]	also measured
CCCCC(CC)C(=O)O (centres unmarked) [ethylhexoic acid]	capable of increasing the surface activity, to variable extents, compared to Bardac 205M alone	good antimicrobial efficacy	highest log reduction of bacteria	highest log reduction of bacteria	excellent kill properties on Staphylococcus	–	–
sodium lauryl ether sulfate [SLES]	–	good antimicrobial efficacy	highest log reduction of bacteria	reduce the antimicrobial activity of the quaternary ammonium compound	–	overall increase in surface activity compared to Bardac 205M alone, but displayed slower dynamics	dynamic surface activity (surface tension versus bubble life time) ([1]; 100 ppm Bardac […] + surfactant at 9:1 mass ratio, 160° F., FIG. 1): do not display the synergistic boost in surface activity; log reduction of bacteria for E. coli (Escherichia coli): highest log reduction of bacteria for E. coli; antimicrobial efficacy against Staphylococcus (Staphylococcus; [4]): good antimicrobial efficacy against Staphylococcus
CCCCCCCCCCCCOS(=O)(=O)[O-].[Na+] [SLS, sodium lauryl sulfate]	–	–	highest log reduction of bacteria	reduce the antimicrobial activity of the quaternary ammonium compound	–	overall increase in surface activity compared to Bardac 205M alone, but displayed slower dynamics	dynamic surface tension [1]: reduced dynamic surface tension, as compared to either the quaternary ammonium compound or the anionic surfactant alone; log reduction of bacteria for E. coli (Escherichia coli): highest log reduction of bacteria for E. coli; antimicrobial efficacy against Staphylococcus (Staphylococcus; [4]): good antimicrobial efficacy against Staphylococcus
CCCCCCCCS(=O)(=O)[O-].[Na+] [NAS-FAL, sodium n-octanesulfonate]	–	–	highest log reduction of bacteria	reduce the antimicrobial activity of the quaternary ammonium compound	–	rapid increase in surface activity	dynamic surface tension [1]: synergistic trend in regards to reduced surface tension; antimicrobial efficacy against Staphylococcus (Staphylococcus; [5]): good antimicrobial efficacy against Staphylococcus
CC(C(=O)[O-])N(CC(=O)[O-])CC(=O)[O-].[Na+].[Na+].[Na+] (centres unmarked) [Trilon M, methyl glycine diacetic acid (MGDA)]	–	–	–	–	–	–	dynamic surface activity, effect of pH ([1]; 100 ppm Bardac LF80 + 100 ppm Trilon M at pH 3.0, 9.0, 11.0, FIG. 21): independent of pH
CCCCCCCC(=O)O [octanoic acid]	capable of increasing the surface activity, to variable extents, compared to Bardac 205M alone	good antimicrobial efficacy	highest log reduction of bacteria	highest log reduction of bacteria	excellent kill properties on Staphylococcus	–	–
CCCCCCCC/C=C\CCCCCCCC(=O)O [Oleic acid]	capable of increasing the surface activity, to variable extents, compared to Bardac 205M alone	–	–	–	–	–	–
CCCCC(CC)COS(=O)(=O)[O-].[Na+] (centres unmarked) [EH-S, Sodium 2-ethyl hexyl sulfate]	–	–	highest log reduction of bacteria	reduce the antimicrobial activity of the quaternary ammonium compound	excellent kill properties on Staphylococcus	rapid increase in surface activity	dynamic surface tension [1]: synergistic reduction of surface tension; log reduction of bacteria for E. coli (Escherichia coli): highest log reduction of bacteria for E. coli; antimicrobial efficacy against Staphylococcus (Staphylococcus; [5]): good antimicrobial efficacy against Staphylococcus
CCCCCCCCCCCC(=O)O [lauric acid]	capable of increasing the surface activity, to variable extents, compared to Bardac 205M alone	–	–	–	–	–	–
CC(O)(P(=O)(O)O)P(=O)(O)O [HEDP, 1-hydroxy ethylidene-1,1-diphosphonic acid]	–	–	–	–	–	–	dynamic surface activity ([1]; 100 ppm Bardac LF80 + 10-75 ppm HEDP, pH 7.0, FIG. 18): increase in dynamic surface activity of Bardac LF80 in combination with HEDP
CCCCCCCCCC(=O)O [decanoic acid]	–	good antimicrobial efficacy	highest log reduction of bacteria	reduce the antimicrobial activity of the quaternary ammonium compound	excellent kill properties on Staphylococcus	–	effect on the antimicrobial efficacy of the quat (E. coli): “synergizes” the quat; effect on the antimicrobial efficacy of the quat (E. coli; listed as decanoate): “deactivates” quat; dynamic surface tension, effect of pH ([1]; 100 ppm Bardac […] + 56 ppm decanoic acid mole:mole, pH 3.6-10.2, FIG. 5B): independent of pH; dynamic surface activity (surface tension versus bubble life time) ([1]; 100 ppm Bardac […] alone, 100 ppm Decanoate alone, or 100 ppm Bardac […] + 10-70 ppm Decanoic acid, FIG. 3B): limited surface activity
